Measured values reported in paper PMC8758481, “Astroglial tracer BU99008 detects multiple binding sites in Alzheimer’s disease brain” (Molecular Psychiatry, 2021).
Read-outs that look alike come from different tables or passages of the source.

What was measured:
[1] = target: imidazoline-2 binding sites (I2BS); assay: ^3H-BU99008 competition binding assay with unlabelled ligands in temporal cortex brain homogenate; design: species or system human
Experimental: (§1) After 1 h incubation a similar protocol as saturation binding assay was done and the binding was quantified using the scintillation counter.
(§2) The competition binding data was fitted and analysed using non-linear regression competitive-binding function of GraphPad Prism 8.3 software to determine IC50 (half-maximal inhibitory concentration) values.

[2] = system: imidazoline-2 binding sites (I2BS); design: method as in PMID 29523627, PMID 24711648; conditions: rhesus brain, dose-dependent; ref [43], [51]; cited from earlier work
[3] = target: imidazoline-2 binding sites (I2BS); assay: ^3H-BU99008 competition binding with unlabelled BU99008 in the presence of MAO B inhibitors; design: species or system human; conditions: for IC50: unlabelled BU99008 alone
Experimental: A similar protocol as saturation binding assay was performed after 1 h incubation and the binding was quantified using the scintillation counter.
as §2

[4] = target: T1, monoamine oxidase B (MAO B) (Homo sapiens, UniProt P27338); assay: ^3H-Deprenyl competition binding assay in temporal cortex brain homogenate; conditions: for IC50: vs 10 nM ^3H-Deprenyl, two-site fit
T1 construct: from tissue; host or cells: large frozen postmortem human brain sections (control, sporadic AD, AβPParc carrier)
T1 sequence (P27338 1-520): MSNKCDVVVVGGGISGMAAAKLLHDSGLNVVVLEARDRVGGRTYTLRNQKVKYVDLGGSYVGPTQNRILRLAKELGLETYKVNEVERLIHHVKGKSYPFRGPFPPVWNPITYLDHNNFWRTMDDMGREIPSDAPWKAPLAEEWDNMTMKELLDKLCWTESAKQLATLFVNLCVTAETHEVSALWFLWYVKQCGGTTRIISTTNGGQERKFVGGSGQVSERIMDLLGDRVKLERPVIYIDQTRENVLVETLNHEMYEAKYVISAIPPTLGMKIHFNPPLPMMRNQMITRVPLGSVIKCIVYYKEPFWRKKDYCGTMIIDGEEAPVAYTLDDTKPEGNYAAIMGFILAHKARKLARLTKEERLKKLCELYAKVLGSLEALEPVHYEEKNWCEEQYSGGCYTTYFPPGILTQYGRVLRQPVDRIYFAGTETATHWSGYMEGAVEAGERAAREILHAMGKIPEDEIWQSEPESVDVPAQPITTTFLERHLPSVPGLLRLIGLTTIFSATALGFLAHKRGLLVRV
Experimental: as §1, §2

[5] = system: imidazoline-2 binding sites (I2BS); design: method as in PMID 29523627; conditions: human brain, pretreatment, highest dose of 80 mg; ref [43]; cited from earlier work
[6] = AD temporal cortex, vs 1 nM ^3H-BU99008, two-site fit, read-out: IC50_1
[7] = AD temporal cortex, vs 1 nM ^3H-BU99008, two-site fit, read-out: IC50_2
[8] = CN temporal cortex, vs 1 nM ^3H-BU99008, two-site fit, read-out: IC50_1
[9] = CN temporal cortex, vs 1 nM ^3H-BU99008, two-site fit, read-out: IC50_2

Row | SMILES | IC50 [1, 6] [nM] | IC50 [1, 7] [nM] | IC50 [1, 8] [nM] | IC50 [1, 9] [nM] | proportion of High-affinity (HA; 10^-10 to -9 M) binding sites ([1]; CN, ^3H-BU99008 competition) [%] | proportion of Low-affinity (LA; 10^-7 to -6 M) binding sites ([1]; CN, ^3H-BU99008 competition) [%] | proportion of Low-affinity (LA; 10^-7 to -6 M) binding sites ([1]; AD, ^3H-BU99008 competition) [%] | proportion of Super high-affinity (SH; 10^-13 to -11 M) binding sites ([1]; CN, ^3H-BU99008 competition) [%] | other results
1 | Cl.c1ccc2oc(C3=NCCN3)cc2c1 [2-BFI, 2-(Benzofuran-2-yl)-2-imidazoline hydrochloride] | 0.041 | 165 | 0.34 | 150 | 18 | 82 |  |  | proportion of Super high-affinity (SH; 10^-13 to -11 M) binding sites ([1]; AD, ^3H-BU99008 competition): 19%
2 | Cl.c1ccc2nc(C3=NCCN3)ccc2c1 [BU224, 2-(4,5-Dihydroimidazol-2-yl)quinoline hydrochloride] |  |  | 0.026 | 186 |  | 56 | 100 | 44 | IC50 ([1]; AD temporal cortex, vs 1 nM ^3H-BU99008, single binding site, read-out: IC50): 416 nM; ^11C-BU99008 signal throughout the brain after pretreatment [2]: significantly reduced
3 | Cn1c(C2=NCCN2)cc2ccccc21 [BU99008, 2-(4,5-dihydro-1H-imidazol-2-yl)-1-methyl-1H-indole] | 1.43 | 342 |  | 2.45 | 75 |  | 22 | 25 | proportion of High-affinity (HA; 10^-10 to -9 M) binding sites ([1]; AD, ^3H-BU99008 competition): 78%; majority of binding to HA binding sites ([1]; both CN and AD cases, ^3H-BU99008 competition): 75–78%; IC50 ([3]; AD (85 years), one-site, read-out: IC50): 1.73 nM; IC50 ([3]; CN (71 years), vs 1 nM ^3H-BU99008, read-out: IC50_2 (HA)): 2.81 nM; majority of binding to LA sites [4]: 70–78%; IC50 ([4]; AD temporal cortex, read-out: IC50_1): 0.002 nM; IC50 ([4]; AD temporal cortex, read-out: IC50_2): 254 nM; IC50 ([4]; CN temporal cortex, read-out: IC50_1): 0.72 nM; IC50 ([4]; CN temporal cortex, read-out: IC50_2): 3110 nM
4 | c1ccc2c(c1)OCC(C1=NCCN1)O2 (stereo not drawn) [idazoxan] |  |  |  |  |  |  |  |  | average block of ^11C-BU99008 uptake across all regions [5]: 60%
5 | C[C@H](NCc1ccc(OCc2cccc(F)c2)cc1)C(N)=O [safinamide] |  |  |  |  |  |  |  |  | effect on binding of BU99008 to the SH binding sites ([3]; CN, ^3H-BU99008 competition): completely blocked; decrease in ^3H-BU99008 total binding ([3]; CN, lower concentration ranges [10^-14-10^-9]): 15–30%; effect on binding of BU99008 to HA binding sites ([3]; both CN and AD cases, increasing concentrations of inhibitor): not affected
